Measured values taken from article PMC6325200, “Effects of Microplate Type and Broth Additives on Microdilution MIC Susceptibility Assays” (Antimicrobial Agents and Chemotherapy, 2018).
≈ marks a conversion by molar mass, not a printed value.

Legend:
E. coli ATCC 25922 = experiment: microbe, parasite or virus in culture; settings: n = 2
Protocol: A positive control of a row of just the bacteria and a negative control of only the medium were included for every plate tested.
The compounds along with standard antibiotics were serially diluted 2-fold across the 96-well plates. […] A sample of each culture was then diluted 40-fold in fresh MH broth (in presence and absence of Tween) and incubated at 37°C for 2 to 3 h.
For experiments in the presence of surfactant, 2% beractant (25 mg/ml) was added to the mid-log-phase cultures and mixed gently and added to all the 96-well plates. For experiments in the presence of serum, a mixture of 50% of human serum along with 50% MHB was prepared and used throughout the experiment.

E. coli = settings: literature value; cited from earlier work
MRSA = settings: literature value; cited from earlier work
Description: TABLE 1 Literature MIC values for tested antibiotics | column: MIC (µg/ml) (reference[s]) / MRSA

A. baumannii ATCC 19606 = experiment: microbe, parasite or virus in culture; settings: Acinetobacter baumannii, n = 2
How it was run: (§1)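 MH broth with or without Tween received a 40-fold dilution of each culture, held at 37°C for 2–3 h. Twofold dilution series of the compounds and standard antibiotics are run in 96-well plates.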

P. aeruginosa ATCC 10145 = experiment: microbe, parasite or virus in culture; settings: Pseudomonas aeruginosa, n = 2
How it was run: as §1

K. pneumoniae ATCC 13883 = experiment: microbe, parasite or virus in culture; settings: Klebsiella pneumoniae, n = 2
How it was run: as §1

CO[C@H]1/C=C/O[C@@]2(C)Oc3c(C)c(O)c4c(O)c(c(/C=N/N5CCN(C)CC5)c(O)c4c3C2=O)NC(=O)/C(C)=C\C=C\[C@H](C)[C@H](O)[C@@H](C)[C@@H](O)[C@@H](C)[C@H](OC(C)=O)[C@@H]1C [Rifampin, rifampin]
MIC (E. coli ATCC 25922; Corning NBS plate, MHB −T80, no additive): 4 to 8 µg/mL
MIC (E. coli ATCC 25922; Corning NBS plate, MHB −T80, no additive, listed as Rifampicin): 4 to 8 µg/mL
MIC (E. coli ATCC 25922; Corning PS plate, MHB +0.002% T80, no further additive): 8 to 16 µg/mL
MIC (E. coli ATCC 25922; Corning PS plate, MHB +0.002% T80, no further additive, listed as Rifampicin): 8 to 16 µg/mL
MIC (E. coli ATCC 25922; Corning PS plate, MHB −T80, no additive): 4 to 8 µg/mL
MIC (E. coli ATCC 25922; Corning PS plate, MHB −T80, no additive, listed as Rifampicin): 4 to 8 µg/mL
MIC (E. coli ATCC 25922; Corning TC plate, MHB −T80, no additive): 4 to 8 µg/mL
MIC (E. coli ATCC 25922; Corning TC plate, MHB −T80, no additive, listed as Rifampicin): 4 to 8 µg/mL
MIC (E. coli ATCC 25922; Escherichia coli, ATCC25922, 24 h, Corning NBS, MH + 2% LHB, 2% LS): 4 to 8 µg/mL
MIC (E. coli ATCC 25922; Escherichia coli, ATCC25922, 24 h, Corning NBS, MH + 2% LHB, 50% HS): 8 µg/mL
MIC (E. coli ATCC 25922; Escherichia coli, ATCC25922, 24 h, Corning NBS, MH + 2% LHB, no additive): 2 to 4 µg/mL
MIC (E. coli ATCC 25922; Escherichia coli, ATCC25922, 24 h, Corning NBS, MH + T80, 2% LS): 4 to 8 µg/mL
MIC (E. coli ATCC 25922; Escherichia coli, ATCC25922, 24 h, Corning NBS, MH + T80, 50% HS): 8 µg/mL
MIC (E. coli ATCC 25922; Escherichia coli, ATCC25922, 24 h, Corning PS, MH + 2% LHB, 2% LS): 4 to 8 µg/mL
MIC (E. coli ATCC 25922; Escherichia coli, ATCC25922, 24 h, Corning PS, MH + 2% LHB, 50% HS): 4 to 8 µg/mL
MIC (E. coli ATCC 25922; Escherichia coli, ATCC25922, 24 h, Corning PS, MH + 2% LHB, no additive): 4 to 8 µg/mL
MIC (E. coli ATCC 25922; Escherichia coli, ATCC25922, 24 h, Corning PS, MH + T80, 2% LS): 4 to 8 µg/mL
MIC (E. coli ATCC 25922; Escherichia coli, ATCC25922, 24 h, Corning PS, MH + T80, 50% HS): 8 µg/mL
MIC (E. coli ATCC 25922; Escherichia coli, ATCC25922, 24 h, Corning TC, MH + 2% LHB, 2% LS): 8 µg/mL
MIC (E. coli ATCC 25922; Escherichia coli, ATCC25922, 24 h, Corning TC, MH + 2% LHB, 50% HS): 8 to 16 µg/mL
MIC (E. coli ATCC 25922; Escherichia coli, ATCC25922, 24 h, Corning TC, MH + 2% LHB, no additive): 8 µg/mL
MIC (E. coli ATCC 25922; Escherichia coli, ATCC25922, 24 h, Corning TC, MH + T80, 2% LS): 4 to 8 µg/mL
MIC (E. coli ATCC 25922; Escherichia coli, ATCC25922, 24 h, Corning TC, MH + T80, 50% HS): 8 µg/mL
MIC (E. coli ATCC 25922; Escherichia coli, ATCC25922, 24 h, Trek PS, MH + 2% LHB, 2% LS): 2 to 4 µg/mL
MIC (E. coli ATCC 25922; Escherichia coli, ATCC25922, 24 h, Trek PS, MH + 2% LHB, 50% HS): 4 µg/mL
MIC (E. coli ATCC 25922; Escherichia coli, ATCC25922, 24 h, Trek PS, MH + 2% LHB, no additive): 4 to 8 µg/mL
MIC (E. coli ATCC 25922; Escherichia coli, ATCC25922, 24 h, Trek PS, MH + T80, 2% LS): 4 µg/mL
MIC (E. coli ATCC 25922; Escherichia coli, ATCC25922, 24 h, Trek PS, MH + T80, 50% HS): 4 to 8 µg/mL
MIC (E. coli ATCC 25922; Escherichia coli, ATCC25922, Corning NBS plate, MHB +0.002% T80, no further additive): 8 µg/mL (≈ 9.72 µM)
MIC (E. coli ATCC 25922; Escherichia coli, ATCC25922, Corning NBS plate, MHB −T80, no additive): 4 to 8 µg/mL (≈ 4.86 to 9.72 µM)
MIC (E. coli ATCC 25922; Escherichia coli, ATCC25922, Corning NBS, MH, 2% LS): 8 µg/mL (≈ 9.72 µM)
MIC (E. coli ATCC 25922; Escherichia coli, ATCC25922, Corning NBS, MH, 50% HS): 8 µg/mL (≈ 9.72 µM)
MIC (E. coli ATCC 25922; Escherichia coli, ATCC25922, Corning PS plate, MHB +0.002% T80, no further additive): 8 to 16 µg/mL (≈ 9.72 to 19.4 µM)
MIC (E. coli ATCC 25922; Escherichia coli, ATCC25922, Corning PS plate, MHB −T80, no additive): 4 to 8 µg/mL (≈ 4.86 to 9.72 µM)
MIC (E. coli ATCC 25922; Escherichia coli, ATCC25922, Corning PS, MH, 2% LS): 8 µg/mL (≈ 9.72 µM)
MIC (E. coli ATCC 25922; Escherichia coli, ATCC25922, Corning PS, MH, 50% HS): 4 to 8 µg/mL (≈ 4.86 to 9.72 µM)
MIC (E. coli ATCC 25922; Escherichia coli, ATCC25922, Corning TC plate, MHB +0.002% T80, no further additive): 8 µg/mL (≈ 9.72 µM)
MIC (E. coli ATCC 25922; Escherichia coli, ATCC25922, Corning TC plate, MHB −T80, no additive): 4 to 8 µg/mL (≈ 4.86 to 9.72 µM)
MIC (E. coli ATCC 25922; Escherichia coli, ATCC25922, Corning TC, MH, 2% LS): 8 µg/mL (≈ 9.72 µM)
MIC (E. coli ATCC 25922; Escherichia coli, ATCC25922, Corning TC, MH, 50% HS): 8 µg/mL (≈ 9.72 µM)
MIC (E. coli ATCC 25922; Escherichia coli, ATCC25922, Nunc PS plate, MHB +0.002% T80): 4 to 8 µg/mL (≈ 4.86 to 9.72 µM)
MIC (E. coli ATCC 25922; Escherichia coli, ATCC25922, Nunc PS plate, MHB −T80): 4 µg/mL (≈ 4.86 µM)
MIC (E. coli ATCC 25922; Escherichia coli, ATCC25922, Nunc U TC plate, MHB +0.002% T80): 8 µg/mL (≈ 9.72 µM)
MIC (E. coli ATCC 25922; Escherichia coli, ATCC25922, Nunc U TC plate, MHB −T80): 4 to 8 µg/mL (≈ 4.86 to 9.72 µM)
MIC (E. coli ATCC 25922; Escherichia coli, ATCC25922, Nunc flat TC plate, MHB +0.002% T80): 8 µg/mL (≈ 9.72 µM)
MIC (E. coli ATCC 25922; Escherichia coli, ATCC25922, Nunc flat TC plate, MHB −T80): 4 µg/mL (≈ 4.86 µM)
MIC (E. coli ATCC 25922; Escherichia coli, ATCC25922, Trek PS plate, MHB +0.002% T80, no further additive): 8 to 16 µg/mL (≈ 9.72 to 19.4 µM)
MIC (E. coli ATCC 25922; Escherichia coli, ATCC25922, Trek PS plate, MHB −T80, no additive): 4 µg/mL (≈ 4.86 µM)
MIC (E. coli ATCC 25922; Escherichia coli, ATCC25922, Trek PS, MH, 2% LS): 4 to 8 µg/mL (≈ 4.86 to 9.72 µM)
MIC (E. coli ATCC 25922; Escherichia coli, ATCC25922, Trek PS, MH, 50% HS): 8 µg/mL (≈ 9.72 µM)
MIC (E. coli ATCC 25922; Trek PS plate, MHB +0.002% T80, no further additive): 8 to 16 µg/mL
MIC (literature) (E. coli): 2 ([74], [75]) µg/ml
MIC (literature) (MRSA): 0.015 ([62]) µg/ml
MIC (A. baumannii ATCC 19606; ATCC19606, Corning NBS, MHB +T80): 2 µg/mL (≈ 2.43 µM)
MIC (A. baumannii ATCC 19606; ATCC19606, Corning NBS, MHB -T80): 2 µg/mL (≈ 2.43 µM)
MIC (A. baumannii ATCC 19606; ATCC19606, Corning PS, MHB +T80): 2 µg/mL (≈ 2.43 µM)
MIC (A. baumannii ATCC 19606; ATCC19606, Corning PS, MHB -T80): 2 µg/mL (≈ 2.43 µM)
MIC (A. baumannii ATCC 19606; ATCC19606, Corning TC, MHB +T80): 2 µg/mL (≈ 2.43 µM)
MIC (A. baumannii ATCC 19606; ATCC19606, Corning TC, MHB -T80): 2 to 4 µg/mL (≈ 2.43 to 4.86 µM)
MIC (P. aeruginosa ATCC 10145; ATCC10145, Corning NBS, MHB +T80): 32 µg/mL (≈ 38.9 µM)
MIC (P. aeruginosa ATCC 10145; ATCC10145, Corning NBS, MHB -T80): 16 to 32 µg/mL (≈ 19.4 to 38.9 µM)
MIC (P. aeruginosa ATCC 10145; ATCC10145, Corning PS, MHB +T80): 32 to 64 µg/mL (≈ 38.9 to 77.8 µM)
MIC (P. aeruginosa ATCC 10145; ATCC10145, Corning PS, MHB -T80): 16 to 32 µg/mL (≈ 19.4 to 38.9 µM)
MIC (P. aeruginosa ATCC 10145; ATCC10145, Corning TC, MHB +T80): 32 µg/mL (≈ 38.9 µM)
MIC (P. aeruginosa ATCC 10145; ATCC10145, Corning TC, MHB -T80): 32 µg/mL (≈ 38.9 µM)
MIC (K. pneumoniae ATCC 13883; ATCC13883, Corning NBS, MHB +T80): 16 µg/mL (≈ 19.4 µM)
MIC (K. pneumoniae ATCC 13883; ATCC13883, Corning NBS, MHB -T80): 16 µg/mL (≈ 19.4 µM)
MIC (K. pneumoniae ATCC 13883; ATCC13883, Corning PS, MHB +T80): 16 to 64 µg/mL (≈ 19.4 to 77.8 µM)
MIC (K. pneumoniae ATCC 13883; ATCC13883, Corning PS, MHB -T80): 8 to 16 µg/mL (≈ 9.72 to 19.4 µM)
MIC (K. pneumoniae ATCC 13883; ATCC13883, Corning TC, MHB +T80): 16 µg/mL (≈ 19.4 µM)
MIC (K. pneumoniae ATCC 13883; ATCC13883, Corning TC, MHB -T80): 16 µg/mL (≈ 19.4 µM)
